According to the kinase profiling compilation of Christmann-Franck et al. (2016):

Experiments:
Assay in all cases: Caliper, Mobility shift assay off-chip
[1] = target: PRKACB (human) (UniProt P22694)
[2] = target: SGK2 (human) (UniProt Q9HBY8)
[3] = target: DYRK3 (human) (UniProt O43781)
[4] = target: TSSK3 (human) (UniProt Q96PN8)
[5] = target: AURKB (human) (UniProt Q96GD4)
[6] = target: SRC (human) (UniProt P12931)
[7] = target: STK38 (human) (UniProt Q15208)
[8] = target: SGK3 (human) (UniProt Q96BR1)
Chain of SGK3 (human) (Q96BR1 whole entry, looked up): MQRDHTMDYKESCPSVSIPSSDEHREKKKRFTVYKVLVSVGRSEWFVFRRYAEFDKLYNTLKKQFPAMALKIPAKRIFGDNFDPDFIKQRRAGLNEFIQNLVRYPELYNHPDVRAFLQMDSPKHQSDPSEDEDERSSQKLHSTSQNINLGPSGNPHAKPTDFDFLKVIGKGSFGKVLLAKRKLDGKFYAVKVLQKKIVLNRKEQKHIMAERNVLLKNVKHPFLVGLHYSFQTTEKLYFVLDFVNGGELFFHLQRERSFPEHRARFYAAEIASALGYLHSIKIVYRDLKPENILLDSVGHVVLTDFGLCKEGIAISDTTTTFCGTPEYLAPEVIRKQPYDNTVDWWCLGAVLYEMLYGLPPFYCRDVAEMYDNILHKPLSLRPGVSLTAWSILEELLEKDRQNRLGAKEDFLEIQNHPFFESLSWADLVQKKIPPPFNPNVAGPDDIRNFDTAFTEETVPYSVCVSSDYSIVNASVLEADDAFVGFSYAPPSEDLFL

[9] = target: PDPK1 (human) (UniProt O15530)
[10] = target: RPS6KB1 (human) (UniProt P23443)
[11] = target: EPHB1 (human) (UniProt P54762)
Chain of EPHB1 (human) (P54762 whole entry, looked up): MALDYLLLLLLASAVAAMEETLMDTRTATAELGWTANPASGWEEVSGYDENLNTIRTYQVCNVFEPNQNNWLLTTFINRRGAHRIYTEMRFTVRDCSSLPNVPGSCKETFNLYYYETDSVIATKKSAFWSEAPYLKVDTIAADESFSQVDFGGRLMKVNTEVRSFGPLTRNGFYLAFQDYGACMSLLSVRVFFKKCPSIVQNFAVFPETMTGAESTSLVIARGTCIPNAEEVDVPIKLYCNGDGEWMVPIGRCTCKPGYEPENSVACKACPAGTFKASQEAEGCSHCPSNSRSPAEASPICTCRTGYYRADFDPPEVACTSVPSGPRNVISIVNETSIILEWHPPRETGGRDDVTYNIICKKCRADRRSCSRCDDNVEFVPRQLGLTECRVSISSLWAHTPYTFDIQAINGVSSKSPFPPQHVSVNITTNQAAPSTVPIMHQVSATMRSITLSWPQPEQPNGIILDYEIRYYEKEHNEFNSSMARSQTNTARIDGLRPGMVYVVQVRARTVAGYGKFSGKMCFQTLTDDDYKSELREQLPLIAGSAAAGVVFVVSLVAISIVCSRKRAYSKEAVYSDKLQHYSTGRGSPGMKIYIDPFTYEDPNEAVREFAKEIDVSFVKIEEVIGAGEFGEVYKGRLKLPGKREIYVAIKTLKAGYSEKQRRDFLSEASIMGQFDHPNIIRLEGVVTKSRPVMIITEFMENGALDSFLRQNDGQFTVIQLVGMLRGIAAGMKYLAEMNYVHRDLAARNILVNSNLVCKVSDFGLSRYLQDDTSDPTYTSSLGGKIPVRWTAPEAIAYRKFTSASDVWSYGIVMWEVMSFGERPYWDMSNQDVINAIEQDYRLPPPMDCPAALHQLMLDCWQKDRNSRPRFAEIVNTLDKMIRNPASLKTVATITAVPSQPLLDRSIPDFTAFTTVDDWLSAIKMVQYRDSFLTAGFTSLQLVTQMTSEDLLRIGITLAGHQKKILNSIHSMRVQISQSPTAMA

[12] = target: WNK1 (human) (UniProt Q9H4A3)
[13] = target: TYK2 JH1 JH2 (human) (UniProt P29597)
[14] = target: CSNK1A1 (human) (UniProt P48729)
[15] = target: STK4 (human) (UniProt Q13043)
Chain of STK4 (human) (Q13043 whole entry, looked up): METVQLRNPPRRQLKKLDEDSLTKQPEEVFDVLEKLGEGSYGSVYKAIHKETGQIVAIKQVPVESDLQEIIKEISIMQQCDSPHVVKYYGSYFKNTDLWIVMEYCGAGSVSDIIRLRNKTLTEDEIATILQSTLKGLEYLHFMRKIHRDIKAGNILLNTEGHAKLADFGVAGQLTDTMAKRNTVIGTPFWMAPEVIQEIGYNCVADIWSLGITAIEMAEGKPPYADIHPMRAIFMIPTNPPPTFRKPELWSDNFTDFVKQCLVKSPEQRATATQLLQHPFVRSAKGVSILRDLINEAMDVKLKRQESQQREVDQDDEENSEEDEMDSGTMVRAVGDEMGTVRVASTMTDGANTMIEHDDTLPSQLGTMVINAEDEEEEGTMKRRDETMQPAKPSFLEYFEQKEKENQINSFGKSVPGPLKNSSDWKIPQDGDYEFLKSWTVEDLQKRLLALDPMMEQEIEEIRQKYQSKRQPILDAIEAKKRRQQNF

[16] = target: PRKCE (human) (UniProt Q02156)
[17] = target: MAPKAPK3 (human) (UniProt Q16644)
Chain of MAPKAPK3 (human) (Q16644 whole entry, looked up): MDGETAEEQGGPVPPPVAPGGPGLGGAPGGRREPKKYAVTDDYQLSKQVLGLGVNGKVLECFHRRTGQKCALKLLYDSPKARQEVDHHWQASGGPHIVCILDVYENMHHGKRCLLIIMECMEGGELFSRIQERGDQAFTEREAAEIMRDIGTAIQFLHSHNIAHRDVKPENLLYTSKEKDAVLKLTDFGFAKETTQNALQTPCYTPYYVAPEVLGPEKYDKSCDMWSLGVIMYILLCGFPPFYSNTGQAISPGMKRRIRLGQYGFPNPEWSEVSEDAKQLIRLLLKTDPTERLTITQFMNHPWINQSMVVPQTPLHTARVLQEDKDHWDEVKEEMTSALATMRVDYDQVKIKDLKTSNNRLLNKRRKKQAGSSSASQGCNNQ

[18] = target: CDK3 (human) (UniProt Q00526)
[19] = target: SRPK3 (human) (UniProt Q9UPE1)
[20] = target: SLK (human) (UniProt Q9H2G2)
[21] = target: ERBB4 (human) (UniProt Q15303)
[22] = target: DCLK2 (human) (UniProt Q8N568)
[23] = target: TNK1 (human) (UniProt Q13470)
[24] = target: BRSK1 (human) (UniProt Q8TDC3)
[25] = target: PRKCZ (human) (UniProt Q05513)
[26] = target: CAMK2D (human) (UniProt Q13557)
Chain of CAMK2D (human) (Q13557 whole entry, looked up): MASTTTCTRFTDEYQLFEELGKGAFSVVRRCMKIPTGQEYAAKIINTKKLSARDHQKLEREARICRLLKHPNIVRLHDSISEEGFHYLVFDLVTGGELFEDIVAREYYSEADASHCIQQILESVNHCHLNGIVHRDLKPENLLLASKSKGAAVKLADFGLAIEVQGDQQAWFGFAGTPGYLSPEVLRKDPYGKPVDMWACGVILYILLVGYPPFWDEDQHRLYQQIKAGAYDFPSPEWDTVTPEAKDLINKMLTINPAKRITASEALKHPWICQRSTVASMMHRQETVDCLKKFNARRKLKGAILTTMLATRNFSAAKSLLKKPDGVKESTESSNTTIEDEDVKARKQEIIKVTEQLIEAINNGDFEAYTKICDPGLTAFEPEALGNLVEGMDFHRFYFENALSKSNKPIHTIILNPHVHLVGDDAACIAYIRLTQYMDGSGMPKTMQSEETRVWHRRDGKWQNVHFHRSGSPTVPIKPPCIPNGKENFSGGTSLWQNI

[27] = target: SRMS (human) (UniProt Q9H3Y6)
[28] = target: FYN (human) (UniProt P06241)
[29] = target: MAPK14 (human) (UniProt Q16539)
Chain of MAPK14 (human) (Q16539 whole entry, looked up): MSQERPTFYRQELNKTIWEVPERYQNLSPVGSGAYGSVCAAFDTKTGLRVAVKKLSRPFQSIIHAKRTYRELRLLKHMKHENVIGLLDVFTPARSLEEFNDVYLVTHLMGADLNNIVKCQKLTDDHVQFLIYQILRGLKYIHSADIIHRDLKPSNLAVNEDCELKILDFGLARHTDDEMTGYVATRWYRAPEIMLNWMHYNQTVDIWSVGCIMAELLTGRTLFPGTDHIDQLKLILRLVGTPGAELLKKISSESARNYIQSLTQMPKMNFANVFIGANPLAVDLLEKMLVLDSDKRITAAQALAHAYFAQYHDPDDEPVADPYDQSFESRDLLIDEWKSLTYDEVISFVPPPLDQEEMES

[30] = target: WNK2 (human) (UniProt Q9Y3S1)
[31] = target: FLT1 (human) (UniProt P17948)
[32] = target: TAB1 (human) (UniProt Q15750)
[33] = target: MINK1 (human) (UniProt Q8N4C8)
[34] = target: RPS6KA3 KD1 KD2 (human) (UniProt P51812)

Chain of AURKB (human) (Q96GD4 whole entry, looked up): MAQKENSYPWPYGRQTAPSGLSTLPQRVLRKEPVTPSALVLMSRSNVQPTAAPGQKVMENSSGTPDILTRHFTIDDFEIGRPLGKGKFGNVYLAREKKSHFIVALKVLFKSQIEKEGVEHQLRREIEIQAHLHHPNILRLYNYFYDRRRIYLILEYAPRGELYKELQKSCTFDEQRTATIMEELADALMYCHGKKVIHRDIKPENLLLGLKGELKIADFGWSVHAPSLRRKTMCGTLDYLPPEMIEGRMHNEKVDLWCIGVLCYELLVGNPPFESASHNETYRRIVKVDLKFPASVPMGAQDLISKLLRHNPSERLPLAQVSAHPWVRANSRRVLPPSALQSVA
Chain of SGK2 (human) (Q9HBY8 whole entry, looked up): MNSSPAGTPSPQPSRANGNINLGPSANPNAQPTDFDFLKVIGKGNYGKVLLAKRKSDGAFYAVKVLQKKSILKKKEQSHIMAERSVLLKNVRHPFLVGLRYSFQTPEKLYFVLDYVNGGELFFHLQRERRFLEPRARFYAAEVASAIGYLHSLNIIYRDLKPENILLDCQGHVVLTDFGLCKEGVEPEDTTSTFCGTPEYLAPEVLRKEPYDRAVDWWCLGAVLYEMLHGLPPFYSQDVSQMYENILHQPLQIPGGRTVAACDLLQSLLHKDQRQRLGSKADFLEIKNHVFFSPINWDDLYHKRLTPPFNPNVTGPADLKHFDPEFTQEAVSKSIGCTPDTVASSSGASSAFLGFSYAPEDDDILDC
Chain of SRC (human) (P12931 whole entry, looked up): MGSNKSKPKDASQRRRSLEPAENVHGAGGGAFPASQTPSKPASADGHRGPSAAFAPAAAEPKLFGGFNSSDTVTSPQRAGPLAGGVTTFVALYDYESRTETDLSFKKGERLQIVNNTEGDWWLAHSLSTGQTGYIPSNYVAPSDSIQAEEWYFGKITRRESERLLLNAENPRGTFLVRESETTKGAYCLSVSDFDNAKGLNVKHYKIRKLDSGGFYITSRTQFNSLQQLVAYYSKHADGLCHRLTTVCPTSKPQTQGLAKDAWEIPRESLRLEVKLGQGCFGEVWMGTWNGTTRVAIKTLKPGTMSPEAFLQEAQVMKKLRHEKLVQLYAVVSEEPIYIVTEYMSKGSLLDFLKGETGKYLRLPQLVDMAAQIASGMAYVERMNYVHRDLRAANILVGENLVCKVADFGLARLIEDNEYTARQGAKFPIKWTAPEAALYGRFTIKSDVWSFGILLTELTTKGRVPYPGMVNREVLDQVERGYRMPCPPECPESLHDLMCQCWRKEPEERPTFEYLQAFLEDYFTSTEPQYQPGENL
Chain of TSSK3 (human) (Q96PN8 whole entry, looked up): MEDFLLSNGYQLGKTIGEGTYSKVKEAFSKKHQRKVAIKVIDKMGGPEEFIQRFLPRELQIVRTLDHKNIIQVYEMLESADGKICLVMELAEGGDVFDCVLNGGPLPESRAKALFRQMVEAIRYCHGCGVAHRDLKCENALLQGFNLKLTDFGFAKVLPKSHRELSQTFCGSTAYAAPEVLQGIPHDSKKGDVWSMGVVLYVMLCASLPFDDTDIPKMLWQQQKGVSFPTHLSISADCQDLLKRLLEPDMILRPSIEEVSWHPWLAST

## CNC(=O)c1ccccc1Sc1ccc2c(/C=C/c3ccccn3)n[nH]c2c1
[1]; compound 0.001 µM
  inhibition: -7.3%
[1]; compound 0.02 µM
  inhibition: -10.6%
[2]; compound 0.001 µM
  inhibition: -1.7%
[2]; compound 0.02 µM
  inhibition: 4.4%
[3]; compound 0.001 µM
  inhibition: -18.5%
[3]; compound 0.02 µM
  inhibition: -6.4%
[4]; compound 0.001 µM
  inhibition: -1.6%
[4]; compound 0.02 µM
  inhibition: 0%
[5]; compound 0.001 µM
  inhibition: 5.9%
[5]; compound 0.02 µM
  inhibition: 48.4%
[6]; compound 0.001 µM
  inhibition: 1.3%
[6]; compound 0.02 µM
  inhibition: -0.2%
[7]; compound 0.001 µM
  inhibition: 8%
[7]; compound 0.02 µM
  inhibition: -1.3%
[8]; compound 0.001 µM
  inhibition: 13.9%
[8]; compound 0.02 µM
  inhibition: 0.8%
[9]; compound 0.001 µM
  inhibition: -3.6%
[9]; compound 0.02 µM
  inhibition: -6.4%
[10]; compound 0.001 µM
  inhibition: 6.6%
[10]; compound 0.02 µM
  inhibition: 10.6%
[11]; compound 0.001 µM
  inhibition: -9.1%
[11]; compound 0.02 µM
  inhibition: -6.5%
[12]; compound 0.001 µM
  inhibition: 4.1%
[12]; compound 0.02 µM
  inhibition: 2.1%
[13]; compound 0.001 µM
  inhibition: 3.7%
[13]; compound 0.02 µM
  inhibition: 1.6%
[14]; compound 0.001 µM
  inhibition: -8.2%
[14]; compound 0.02 µM
  inhibition: -7.8%
[15]; compound 0.001 µM
  inhibition: -5.9%
[15]; compound 0.02 µM
  inhibition: 2%
[16]; compound 0.001 µM
  inhibition: 4.4%
[16]; compound 0.02 µM
  inhibition: -4.2%
[17]; compound 0.001 µM
  inhibition: -0.7%
[17]; compound 0.02 µM
  inhibition: -5.2%
[18]; compound 0.001 µM
  inhibition: -4.2%
[18]; compound 0.02 µM
  inhibition: -4.8%
[19]; compound 0.001 µM
  inhibition: -3.3%
[19]; compound 0.02 µM
  inhibition: -0.9%
[20]; compound 0.001 µM
  inhibition: -5.4%
[20]; compound 0.02 µM
  inhibition: 10.3%
[21]; compound 0.001 µM
  inhibition: 6.3%
[21]; compound 0.02 µM
  inhibition: 3.7%
[22]; compound 0.001 µM
  inhibition: -2.7%
[22]; compound 0.02 µM
  inhibition: -2.1%
[23]; compound 0.001 µM
  inhibition: 26.9%
[23]; compound 0.02 µM
  inhibition: 24.8%
[24]; compound 0.001 µM
  inhibition: -2.4%
[24]; compound 0.02 µM
  inhibition: 20.1%
[25]; compound 0.001 µM
  inhibition: 12%
[25]; compound 0.02 µM
  inhibition: -4.6%
[26]; compound 0.001 µM
  inhibition: 3%
[26]; compound 0.02 µM
  inhibition: 2.4%
[27]; compound 0.001 µM
  inhibition: -4.5%
[27]; compound 0.02 µM
  inhibition: -4.9%
[28]; compound 0.001 µM
  inhibition: 7.3%
[28]; compound 0.02 µM
  inhibition: 6.1%
[29]; compound 0.001 µM
  inhibition: -8%
[29]; compound 0.02 µM
  inhibition: -6.9%
[30]; compound 0.001 µM
  inhibition: 1.8%
[30]; compound 0.02 µM
  inhibition: -0.3%
[31]; compound 0.001 µM
  inhibition: 25.3%
[31]; compound 0.02 µM
  inhibition: 99.3%
[32]; compound 0.001 µM
  inhibition: 1.4%
[32]; compound 0.02 µM
  inhibition: 1.1%
[33]; compound 0.001 µM
  inhibition: 0.7%
[33]; compound 0.02 µM
  inhibition: 0.1%

## Cc1ccc(Nc2nccc(N(C)c3ccc4c(C)n(C)nc4c3)n2)cc1S(N)(=O)=O
[1]; compound 0.02 µM
  inhibition: -1.5%
[1]; compound 0.2 µM
  inhibition: -7.3%
[2]; compound 0.02 µM
  inhibition: 5.5%
[2]; compound 0.2 µM
  inhibition: -0.1%
[3]; compound 0.02 µM
  inhibition: -2.2%
[3]; compound 0.2 µM
  inhibition: -1.4%
[4]; compound 0.02 µM
  inhibition: 2.2%
[4]; compound 0.2 µM
  inhibition: 6.7%
[5]; compound 0.02 µM
  inhibition: 2.7%
[5]; compound 0.2 µM
  inhibition: 12.5%
[6]; compound 0.02 µM
  inhibition: 8.4%
[6]; compound 0.2 µM
  inhibition: 42.7%
[34]; compound 0.02 µM
  inhibition: 0.7%
[34]; compound 0.2 µM
  inhibition: 3.1%
[7]; compound 0.02 µM
  inhibition: 0.1%
[7]; compound 0.2 µM
  inhibition: 7.5%
[8]; compound 0.02 µM
  inhibition: -0.2%
[8]; compound 0.2 µM
  inhibition: -2.7%
[9]; compound 0.02 µM
  inhibition: -5%
[9]; compound 0.2 µM
  inhibition: -3.3%
[10]; compound 0.02 µM
  inhibition: 11.1%
[10]; compound 0.2 µM
  inhibition: 20.6%
[11]; compound 0.02 µM
  inhibition: -1%
[11]; compound 0.2 µM
  inhibition: -1.6%
[12]; compound 0.02 µM
  inhibition: 1.6%
[12]; compound 0.2 µM
  inhibition: 5.1%
[13]; compound 0.02 µM
  inhibition: 3.7%
[13]; compound 0.2 µM
  inhibition: 7.2%
[14]; compound 0.02 µM
  inhibition: -4.9%
[14]; compound 0.2 µM
  inhibition: -7%
[15]; compound 0.02 µM
  inhibition: -4.7%
[15]; compound 0.2 µM
  inhibition: -5.1%
[16]; compound 0.02 µM
  inhibition: 5.8%
[16]; compound 0.2 µM
  inhibition: -8.2%
[17]; compound 0.02 µM
  inhibition: 2.3%
[17]; compound 0.2 µM
  inhibition: 1.6%
[18]; compound 0.02 µM
  inhibition: -2.4%
[18]; compound 0.2 µM
  inhibition: -4.3%
[19]; compound 0.02 µM
  inhibition: -1.1%
[19]; compound 0.2 µM
  inhibition: 2.1%
[20]; compound 0.02 µM
  inhibition: 9%
[20]; compound 0.2 µM
  inhibition: 12.3%
[21]; compound 0.02 µM
  inhibition: 8.4%
[21]; compound 0.2 µM
  inhibition: 2.6%
[22]; compound 0.02 µM
  inhibition: -1.2%
[22]; compound 0.2 µM
  inhibition: -0.9%
[23]; compound 0.02 µM
  inhibition: 1.8%
[23]; compound 0.2 µM
  inhibition: 12.2%
[24]; compound 0.02 µM
  inhibition: 5.3%
[24]; compound 0.2 µM
  inhibition: 3.2%
[25]; compound 0.02 µM
  inhibition: 2.5%
[25]; compound 0.2 µM
  inhibition: -1.1%
[26]; compound 0.02 µM
  inhibition: 4.9%
[26]; compound 0.2 µM
  inhibition: 4.6%
[27]; compound 0.02 µM
  inhibition: 1.1%
[27]; compound 0.2 µM
  inhibition: 25.2%
[29]; compound 0.02 µM
  inhibition: -9%
[29]; compound 0.2 µM
  inhibition: -2.5%
[30]; compound 0.02 µM
  inhibition: 1%
[30]; compound 0.2 µM
  inhibition: 4.3%
[31]; compound 0.02 µM
  inhibition: 66.5%
[31]; compound 0.2 µM
  inhibition: 99.8%
[32]; compound 0.02 µM
  inhibition: 6.5%
[32]; compound 0.2 µM
  inhibition: 6%
[33]; compound 0.02 µM
  inhibition: 2%
[33]; compound 0.2 µM
  inhibition: 10.8%
